Results reported in ChEMBL document CHEMBL4118122, “Identification and biological evaluation of thiazole-based inverse agonists of RORγt” (Bioorg Med Chem Lett, 2018).

What was measured:
[1] = molecular target: Beta-1 adrenergic receptor (Homo sapiens, UniProt P08588); assay: Displacement of [3H](-)CGP 12177 from human beta1 adrenoceptor after 60 mins by scintillation counting analysis
Homo sapiens = species: Homo sapiens; assay: Binding affinity to GABA-gated chloride channel (unknown origin) at 10 uM by antagonist radioligand binding assay relative to control
[2] = Clearance in Sprague-Dawley rat at 1 mg/kg, iv; assay type: ADME, organism-based; settings: in vivo
[3] = molecular target: Small conductance calcium-activated potassium channel (Rattus norvegicus) (UniProt P70604+P70606+P70605); assay: Displacement of [125I]apamin from rat brain SkCa channel at 10 uM after 60 mins by scintillation counting analysis relative to control
[4] = molecular target: Substance-K receptor (Homo sapiens) (UniProt P21452); assay: Displacement of [125I]NKA from human recombinant NK2 receptor at 10 uM after 60 mins by scintillation counting analysis relative to control
[5] = molecular target: C-X-C chemokine receptor type 2 (Homo sapiens, UniProt P25025); assay: Displacement of [125I]IL-8 from human recombinant CXCR2 receptor after 60 mins by scintillation counting analysis
[6] = molecular target: Protein kinase C beta type (Homo sapiens) (UniProt P05771); assay: Inhibition of PKCbeta1 (unknown origin) at 10 uM in presence of ATP relative to control
Sequence of Protein kinase C beta type (Homo sapiens) (P05771 2-671 limits assumed): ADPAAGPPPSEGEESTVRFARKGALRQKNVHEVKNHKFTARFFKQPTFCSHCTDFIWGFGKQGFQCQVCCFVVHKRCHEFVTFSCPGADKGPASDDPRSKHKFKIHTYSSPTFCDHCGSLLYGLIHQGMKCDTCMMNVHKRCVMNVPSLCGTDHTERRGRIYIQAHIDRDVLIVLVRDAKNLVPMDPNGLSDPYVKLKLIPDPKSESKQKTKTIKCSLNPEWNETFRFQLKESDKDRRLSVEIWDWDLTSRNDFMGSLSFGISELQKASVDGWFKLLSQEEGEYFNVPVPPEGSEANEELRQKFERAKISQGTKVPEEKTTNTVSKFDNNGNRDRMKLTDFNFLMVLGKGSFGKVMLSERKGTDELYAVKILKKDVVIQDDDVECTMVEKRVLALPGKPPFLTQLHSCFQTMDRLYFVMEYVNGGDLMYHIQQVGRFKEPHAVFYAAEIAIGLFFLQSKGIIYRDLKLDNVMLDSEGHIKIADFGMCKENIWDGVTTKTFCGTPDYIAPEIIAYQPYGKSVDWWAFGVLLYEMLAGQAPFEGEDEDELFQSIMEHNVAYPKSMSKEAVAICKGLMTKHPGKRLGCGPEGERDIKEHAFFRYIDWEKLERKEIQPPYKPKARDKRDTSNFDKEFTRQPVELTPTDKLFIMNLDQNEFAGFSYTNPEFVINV

[7] = molecular target: Muscarinic acetylcholine receptor M3 (Homo sapiens, UniProt P20309); assay: Displacement of [3H]4-DAMP from human recombinant M3 receptor at 1 uM after 60 mins by scintillation counting analysis relative to control
[8] = molecular target: Mitogen-activated protein kinase 13 (Homo sapiens) (UniProt O15264); assay: Inhibition of recombinant full length His-tagged human p38delta expressed in baculovirus expression system at 10 uM in presence of ATP relative to control
Sequence of Mitogen-activated protein kinase 13 (Homo sapiens) (O15264 whole entry): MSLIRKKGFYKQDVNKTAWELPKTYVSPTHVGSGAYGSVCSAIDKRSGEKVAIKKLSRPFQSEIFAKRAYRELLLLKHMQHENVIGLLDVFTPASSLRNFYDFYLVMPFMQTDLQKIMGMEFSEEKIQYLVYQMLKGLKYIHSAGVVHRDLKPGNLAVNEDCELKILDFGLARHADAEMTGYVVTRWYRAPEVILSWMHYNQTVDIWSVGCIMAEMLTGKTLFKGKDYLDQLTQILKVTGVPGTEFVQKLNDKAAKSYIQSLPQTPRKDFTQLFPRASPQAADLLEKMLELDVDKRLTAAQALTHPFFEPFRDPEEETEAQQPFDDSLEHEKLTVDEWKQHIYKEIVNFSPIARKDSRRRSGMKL

[9] = molecular target: Neuromedin-K receptor (Homo sapiens) (UniProt P29371); assay: Displacement of [3H]SR 142801 from human recombinant NK3 receptor at 10 uM after 120 mins by scintillation counting analysis relative to control
Sequence of Neuromedin-K receptor (Homo sapiens) (P29371 whole entry): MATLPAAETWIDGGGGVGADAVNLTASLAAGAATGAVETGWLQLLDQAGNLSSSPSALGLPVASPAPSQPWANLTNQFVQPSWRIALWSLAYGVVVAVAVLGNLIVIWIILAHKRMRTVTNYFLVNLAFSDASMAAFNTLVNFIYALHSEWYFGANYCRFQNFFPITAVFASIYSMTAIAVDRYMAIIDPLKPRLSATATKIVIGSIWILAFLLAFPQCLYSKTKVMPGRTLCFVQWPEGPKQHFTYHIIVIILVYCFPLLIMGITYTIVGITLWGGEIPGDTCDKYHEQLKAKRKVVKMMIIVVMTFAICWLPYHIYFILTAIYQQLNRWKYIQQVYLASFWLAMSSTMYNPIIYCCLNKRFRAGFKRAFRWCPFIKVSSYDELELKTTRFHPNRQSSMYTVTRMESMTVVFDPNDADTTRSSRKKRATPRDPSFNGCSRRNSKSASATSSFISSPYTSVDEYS

[10] = Oral bioavailability in Sprague-Dawley rat at 5 mg/kg; assay type: ADME, organism-based; settings: in vivo
[11] = molecular target: Vasoactive intestinal polypeptide receptor 1 (Homo sapiens, UniProt P32241); assay: Displacement of [125I]VIP from human recombinant VPAC1 receptor after 60 mins by scintillation counting analysis
[12] = molecular target: T1, Adrenergic receptor alpha-2 (Rattus norvegicus) (UniProt P22086+P19328+P22909); assay: Displacement of [3H]-RX 821002 from rat alpha2 adrenoceptor at 1 uM after 60 mins by scintillation counting analysis relative to control; assay type: protein assay
[13] = molecular target: Type-1 angiotensin II receptor (Homo sapiens, UniProt P30556); assay: Displacement of [125I][Sar1,Ile8]-AT-II from human recombinant AT1 receptor after 120 mins by scintillation counting analysis
[14] = molecular target: 5-hydroxytryptamine receptor 2A (Homo sapiens, UniProt P28223); assay: Displacement of [3H]ketanserin human recombinant 5-HT2A receptor at 1 uM after 60 mins by scintillation counting analysis relative to control
[15] = molecular target: Proto-oncogene tyrosine-protein kinase Src (Homo sapiens) (UniProt P12931); assay: Inhibition of recombinant full length C-terminal His-tagged human Src cytoplasmic domain expressed in baculovirus expression system at 10 uM in presence of ATP relative to control
Sequence of Proto-oncogene tyrosine-protein kinase Src (Homo sapiens) (P12931 2-536 limits assumed): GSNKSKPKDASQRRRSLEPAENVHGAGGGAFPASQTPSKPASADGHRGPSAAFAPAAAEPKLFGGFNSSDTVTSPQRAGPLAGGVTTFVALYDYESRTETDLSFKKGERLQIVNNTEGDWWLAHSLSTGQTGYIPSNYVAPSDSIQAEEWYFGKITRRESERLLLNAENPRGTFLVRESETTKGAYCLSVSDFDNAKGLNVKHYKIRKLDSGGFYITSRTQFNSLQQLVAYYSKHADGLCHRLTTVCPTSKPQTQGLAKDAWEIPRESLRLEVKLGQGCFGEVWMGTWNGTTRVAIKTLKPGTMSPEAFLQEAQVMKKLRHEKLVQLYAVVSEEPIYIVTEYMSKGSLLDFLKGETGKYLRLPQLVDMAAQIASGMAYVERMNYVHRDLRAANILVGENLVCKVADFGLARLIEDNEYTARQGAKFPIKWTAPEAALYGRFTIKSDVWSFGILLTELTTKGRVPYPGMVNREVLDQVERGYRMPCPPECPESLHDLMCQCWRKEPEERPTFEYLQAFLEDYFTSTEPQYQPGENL

[16] = molecular target: T1, Adrenergic receptor alpha-2 (Rattus norvegicus); assay: Displacement of [3H]-RX 821002 from rat alpha2 adrenoceptor at 10 uM after 60 mins by scintillation counting analysis relative to control; assay type: protein assay
D(2) dopamine receptor = D(2) dopamine receptor (Homo sapiens, UniProt P14416); assay: Displacement of [3H]7-OH-DPAT from human recombinant dopamine D2S receptor at 1 uM after 60 mins by scintillation counting analysis relative to control
[17] = Half life in Sprague-Dawley rat at 1 mg/kg, iv; assay type: ADME, organism-based; settings: in vivo
Rattus norvegicus [18] = species: Rattus norvegicus; assay: Displacement of [3H]batrachotoxinin from rat brain voltage gated sodium ion channel site 2 at 10 uM after 60 mins by scintillation counting analysis relative to control
Rattus norvegicus [19] = species: Rattus norvegicus; assay: Displacement of [3H]batrachotoxinin from rat brain voltage gated sodium ion channel site 2 at 1 uM after 60 mins by scintillation counting analysis relative to control
[20] = molecular target: Serine/threonine-protein kinase PLK3 (Homo sapiens) (UniProt Q9H4B4); assay: Inhibition of GST-tagged human PLK3 catalytic domain expressed in baculovirus expression system at 10 uM in presence of ATP relative to control
[21] = molecular target: T2, Nuclear receptor ROR-gamma (Homo sapiens, UniProt P51449); assay: Inverse agonist activity at RORgammat in human CD4 positive T cells assessed as inhibition of IL17A production in human Th17 cells after 1 hr; assay type: cell-based
T2 sequence (P51449 whole entry): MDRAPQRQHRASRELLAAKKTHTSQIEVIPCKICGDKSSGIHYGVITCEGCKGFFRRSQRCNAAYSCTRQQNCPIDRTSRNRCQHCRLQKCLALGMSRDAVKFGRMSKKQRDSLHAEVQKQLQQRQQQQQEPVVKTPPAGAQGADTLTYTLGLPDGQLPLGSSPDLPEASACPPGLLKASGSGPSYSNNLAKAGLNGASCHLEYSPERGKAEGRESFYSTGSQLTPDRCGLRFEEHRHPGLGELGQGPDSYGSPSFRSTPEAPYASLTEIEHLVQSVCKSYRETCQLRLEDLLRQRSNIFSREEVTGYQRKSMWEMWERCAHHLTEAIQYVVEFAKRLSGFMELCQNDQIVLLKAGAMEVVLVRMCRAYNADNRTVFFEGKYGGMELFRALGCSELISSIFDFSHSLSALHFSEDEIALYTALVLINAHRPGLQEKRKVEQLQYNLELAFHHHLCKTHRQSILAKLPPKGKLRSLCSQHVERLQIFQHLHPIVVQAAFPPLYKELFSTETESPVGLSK

Adenosine receptor A3 = Adenosine receptor A3 (Homo sapiens, UniProt P0DMS8); assay: Displacement of [125I]AB-MECA from human recombinant adenosine A3 receptor after 120 mins by scintillation counting analysis
Vasopressin V1a receptor = Vasopressin V1a receptor (Homo sapiens, UniProt P37288); assay: Displacement of [3H]AVP from human recombinant V1a receptor at 10 uM after 60 mins by scintillation counting analysis relative to control
[22] = molecular target: Insulin receptor (Homo sapiens) (UniProt P06213); assay: Inhibition of recombinant His-tagged human InsR (1011 to 1382 residues) expressed in baculovirus expression system at 10 uM in presence of ATP relative to control
Sequence of Insulin receptor (Homo sapiens) (P06213 28-758 limits assumed): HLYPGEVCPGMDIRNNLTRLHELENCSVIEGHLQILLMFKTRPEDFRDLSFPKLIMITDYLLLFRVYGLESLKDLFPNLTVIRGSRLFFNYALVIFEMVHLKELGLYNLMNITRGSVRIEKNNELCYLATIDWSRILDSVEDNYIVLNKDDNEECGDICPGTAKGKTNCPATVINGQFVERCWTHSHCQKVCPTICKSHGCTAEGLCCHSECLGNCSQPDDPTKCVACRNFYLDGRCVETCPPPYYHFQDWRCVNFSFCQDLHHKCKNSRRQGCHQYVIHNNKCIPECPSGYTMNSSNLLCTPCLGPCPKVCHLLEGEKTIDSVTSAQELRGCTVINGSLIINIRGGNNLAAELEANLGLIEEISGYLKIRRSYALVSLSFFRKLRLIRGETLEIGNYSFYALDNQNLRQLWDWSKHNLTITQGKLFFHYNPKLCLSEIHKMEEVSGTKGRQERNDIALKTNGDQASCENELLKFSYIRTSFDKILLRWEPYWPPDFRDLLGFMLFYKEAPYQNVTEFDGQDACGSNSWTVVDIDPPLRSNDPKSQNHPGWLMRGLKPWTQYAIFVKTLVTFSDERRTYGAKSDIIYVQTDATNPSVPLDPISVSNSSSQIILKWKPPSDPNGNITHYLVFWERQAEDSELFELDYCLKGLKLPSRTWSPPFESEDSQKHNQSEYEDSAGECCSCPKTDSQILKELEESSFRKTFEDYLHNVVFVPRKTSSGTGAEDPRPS
Sequence of Insulin receptor (Homo sapiens) (P06213 763-1382 limits assumed): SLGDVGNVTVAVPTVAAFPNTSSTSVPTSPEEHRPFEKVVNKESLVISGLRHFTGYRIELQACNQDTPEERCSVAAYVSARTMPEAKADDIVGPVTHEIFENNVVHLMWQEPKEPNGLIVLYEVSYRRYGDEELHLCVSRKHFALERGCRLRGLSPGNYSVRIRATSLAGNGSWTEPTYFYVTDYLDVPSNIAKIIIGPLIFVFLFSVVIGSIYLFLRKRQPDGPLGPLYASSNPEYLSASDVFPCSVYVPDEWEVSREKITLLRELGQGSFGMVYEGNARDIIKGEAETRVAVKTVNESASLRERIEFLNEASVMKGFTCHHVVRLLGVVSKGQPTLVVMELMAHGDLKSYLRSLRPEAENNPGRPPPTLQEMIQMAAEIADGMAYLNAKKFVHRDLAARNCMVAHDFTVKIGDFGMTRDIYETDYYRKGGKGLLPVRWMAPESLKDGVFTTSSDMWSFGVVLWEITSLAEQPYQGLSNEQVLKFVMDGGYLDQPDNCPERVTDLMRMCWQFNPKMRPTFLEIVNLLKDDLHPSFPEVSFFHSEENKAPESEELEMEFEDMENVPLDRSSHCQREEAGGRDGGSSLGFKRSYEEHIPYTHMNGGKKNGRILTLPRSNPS

[23] = molecular target: Serine/threonine-protein kinase Chk1 (Homo sapiens) (UniProt O14757); assay: Inhibition of recombinant full length His-tagged human CHK1 expressed in baculovirus expression system at 10 uM in presence of ATP relative to control
Sequence of Serine/threonine-protein kinase Chk1 (Homo sapiens) (O14757 whole entry): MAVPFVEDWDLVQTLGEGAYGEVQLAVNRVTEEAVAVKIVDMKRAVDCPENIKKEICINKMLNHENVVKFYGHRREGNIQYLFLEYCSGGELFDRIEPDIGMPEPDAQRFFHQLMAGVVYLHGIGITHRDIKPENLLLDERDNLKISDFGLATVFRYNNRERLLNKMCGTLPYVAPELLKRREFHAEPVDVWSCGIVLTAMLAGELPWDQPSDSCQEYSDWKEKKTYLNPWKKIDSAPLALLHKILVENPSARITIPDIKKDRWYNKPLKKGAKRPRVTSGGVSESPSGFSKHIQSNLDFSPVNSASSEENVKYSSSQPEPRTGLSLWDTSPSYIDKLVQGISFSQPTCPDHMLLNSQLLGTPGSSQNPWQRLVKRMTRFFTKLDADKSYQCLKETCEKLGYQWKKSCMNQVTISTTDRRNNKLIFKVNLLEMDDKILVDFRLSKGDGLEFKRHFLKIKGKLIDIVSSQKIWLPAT

[24] = molecular target: 5-hydroxytryptamine receptor 5A (Homo sapiens, UniProt P47898); assay: Displacement of [3H]LSD from human recombinant 5-HT5a receptor after 120 mins by scintillation counting analysis
Sequence of 5-hydroxytryptamine receptor 5A (P47898 whole entry, the tested form may be a part): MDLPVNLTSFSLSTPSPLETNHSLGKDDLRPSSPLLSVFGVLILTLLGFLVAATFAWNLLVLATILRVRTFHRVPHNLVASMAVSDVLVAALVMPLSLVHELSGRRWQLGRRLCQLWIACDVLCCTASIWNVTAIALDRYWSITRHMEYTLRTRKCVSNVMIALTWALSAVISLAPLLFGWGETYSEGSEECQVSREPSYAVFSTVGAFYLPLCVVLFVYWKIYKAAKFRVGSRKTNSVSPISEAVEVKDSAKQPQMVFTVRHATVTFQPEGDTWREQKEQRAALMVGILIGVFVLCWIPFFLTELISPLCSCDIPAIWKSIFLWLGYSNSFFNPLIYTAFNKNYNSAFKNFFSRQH

[25] = molecular target: Serine/threonine-protein kinase PAK 4 (Homo sapiens) (UniProt O96013); assay: Inhibition of recombinant GST-tagged human PAK4 catalytic domain expressed in baculovirus expression system at 10 uM in presence of ATP relative to control

Sequence of Beta-1 adrenergic receptor (P08588 whole entry): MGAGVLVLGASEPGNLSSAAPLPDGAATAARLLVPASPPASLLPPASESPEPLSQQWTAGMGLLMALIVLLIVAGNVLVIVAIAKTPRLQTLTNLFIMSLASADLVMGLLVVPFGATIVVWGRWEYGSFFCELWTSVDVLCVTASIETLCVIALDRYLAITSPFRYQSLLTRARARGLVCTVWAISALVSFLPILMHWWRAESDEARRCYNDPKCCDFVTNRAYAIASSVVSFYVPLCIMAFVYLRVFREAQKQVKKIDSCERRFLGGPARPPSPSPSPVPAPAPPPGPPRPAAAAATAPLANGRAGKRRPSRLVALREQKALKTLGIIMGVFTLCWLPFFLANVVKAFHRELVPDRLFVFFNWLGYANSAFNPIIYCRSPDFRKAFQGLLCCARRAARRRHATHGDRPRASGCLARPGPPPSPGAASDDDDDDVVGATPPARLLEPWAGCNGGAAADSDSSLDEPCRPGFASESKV

## CC(C)(C)NS(=O)(=O)c1ccc(-c2sc(C(=O)N[C@H]3C[C@H](C(=O)O)C3)nc2CC2CCCCC2)c2ccccc12
[1]
  IC50: 297000 pM
Homo sapiens
  inhibition: 86%
[2]
  clearance: 51.4 mL/min/kg
[3]
  inhibition: < 10%
[4]
  inhibition: < 10%
[5]
  IC50: 240 pM
[6]
  inhibition: -2%
[7]
  inhibition: < 10%
[8]
  inhibition: -4%
[9]
  inhibition: 32%
[10]
  bioavailability: 20%
[11]
  IC50: 470 pM
[12]
  inhibition: < 10%
[13]
  IC50: 470 pM
[14]
  inhibition: < 10%
[15]
  inhibition: -4%
[16]
  inhibition: < 10%
D(2) dopamine receptor
  inhibition: < 10%
[17]
  half-life: 42 min
Rattus norvegicus [18]
  inhibition: 11%
Rattus norvegicus [19]
  inhibition: < 10%
[20]
  inhibition: -5%
[21]
  EC50: 2800 pM
Adenosine receptor A3
  IC50: 170 pM
Vasopressin V1a receptor
  inhibition: 10%
[22]
  inhibition: -4%
[23]
  inhibition: 1%
[24]
  IC50: 106000 pM
[25]
  inhibition: 7%
